Measured values taken from the NIST ThermoML archive (doi:10.1016/j.jct.2019.01.007).
Several values for one entry are separate records, joined by “and”; a condition that tells them apart may be missing. Identical values can stand only once.

Settings: Liquid

CCCCCCCCCCCCC(=O)OC [methyl tridecanoate]
Transpiration method
Settings	vapor or sublimation pressure [kPa]
298.15 K	0.000239
300.15 K	0.000302
303.25 K	0.00041
305.15 K	0.000485
308.15 K	0.000697
310.15 K	0.000799
313.35 K	0.00112
315.05 K	0.0013
318.25 K	0.00174
320.15 K	0.00203
323.25 K	0.00258
325.05 K	0.00314
328.15 K	0.00415
330.15 K	0.00492
333.15 K	0.00626
335.15 K	0.00739
338.15 K	0.00934
340.15 K	0.0111
343.05 K	0.0131
345.15 K	0.0163
348.15 K	0.0197
350.15 K	0.023
353.15 K	0.0286
355.15 K	0.0338

CCCCCCCCCCCCCC(=O)OC [methyl tetradecanoate]
Settings	vapor or sublimation pressure [kPa]
302.71 K	0.0001132
305.3 K	0.0001501
306.14 K	0.0001656
307.76 K	0.0001949
308.58 K	0.0002142
310.23 K	0.0002542
311.21 K	0.0002813
312.71 K	0.0003264
313.7 K	0.0003625
315.17 K	0.0004199
316.16 K	0.0004655
317.65 K	0.0005357
318.63 K	0.0005914
320.12 K	0.0006862
321.26 K	0.0007623
322.58 K	0.0008688
323.72 K	0.0009621
325.2 K	0.001105
326.19 K	0.001216
327.67 K	0.001391
328.66 K	0.001519
330.13 K	0.001743
331.13 K	0.001907
332.6 K	0.002171
333.6 K	0.002378
335.34 K	0.002751
336.07 K	0.002936
337.83 K	0.00341
338.55 K	0.003626
340.31 K	0.004207
341.01 K	0.00447
342.8 K	0.005171
343.48 K	0.005466
345.28 K	0.006333
345.96 K	0.006695
347.76 K	0.007722
348.43 K	0.008134
350.25 K	0.009383
350.91 K	0.009867
352.73 K	0.01136
355.48 K	0.01397
357.96 K	0.0168
360.44 K	0.02019
362.92 K	0.02417
365.4 K	0.02884
367.85 K	0.0341
370.34 K	0.0405
372.83 K	0.04791
375.44 K	0.05668
377.92 K	0.06667
380.41 K	0.0782
382.89 K	0.09144
385.37 K	0.1068
387.86 K	0.1243
390.36 K	0.1443
393.01 K	0.1685
395.5 K	0.1947
397.98 K	0.2245
400.45 K	0.2582
402.96 K	0.297
405.45 K	0.3402
407.93 K	0.3881
410.41 K	0.4428
412.89 K	0.5045
415.45 K	0.5764
417.93 K	0.6527
420.4 K	0.7365
422.88 K	0.8323

Transpiration method
Settings	vapor or sublimation pressure [kPa]
303.05 K	0.000126
304.65 K	0.000152
306.05 K	0.000172
309.15 K	0.000236
311.15 K	0.00032
313.15 K	0.00039
316.25 K	0.000485
319.25 K	0.000631
322.05 K	0.000891
325.05 K	0.00116
328.25 K	0.00151
331.05 K	0.0019
333.05 K	0.00252
333.15 K	0.00233
334.95 K	0.00275
338.05 K	0.00359
340.05 K	0.00416
343.05 K	0.00536
344.95 K	0.00629
348.05 K	0.00758
350.15 K	0.00963
353.05 K	0.0111
355.15 K	0.0133
358.05 K	0.0168
360.05 K	0.02
363.05 K	0.0242

CCCCCCCCCCCCCCCC(=O)OC [methyl hexadecanoate]
Settings	vapor or sublimation pressure
308.12 K	2.814e-05 kPa
312 K	4.574e-05 kPa
312.96 K	5.318e-05 kPa
312.97 K	4.817e-05 kPa
314.42 K	5.995e-05 kPa
315.4 K	6.903e-05 kPa
316.85 K	7.591e-05 kPa
317.81 K	8.232e-05 kPa
317.82 K	8.757e-05 kPa
319.27 K	0.0001 kPa
320.26 K	0.0001123 kPa
321.71 K	0.0001276 kPa
322.66 K	0.0001426 kPa
322.67 K	0.000144 kPa
324.12 K	0.0001655 kPa
325.11 K	0.0001853 kPa
326.56 K	0.0002146 kPa
327.52 K	0.0002379 kPa and 0.0002346 kPa
328.98 K	0.0002676 kPa
329.96 K	0.0002973 kPa
331.42 K	0.0003403 kPa
332.37 K	0.0003763 kPa and 0.000377 kPa
333.83 K	0.000429 kPa
334.83 K	0.0004701 kPa
336.28 K	0.0005477 kPa
337.23 K	0.0006044 kPa and 0.0005995 kPa
338.69 K	0.0006834 kPa
339.69 K	0.0007518 kPa
341.14 K	0.0008558 kPa
342.09 K	0.0009461 kPa and 0.0009339 kPa
343.55 K	0.00107 kPa
344.55 K	0.001176 kPa
345.01 K	0.001226 kPa
346 K	0.001334 kPa
346.95 K	0.001462 kPa and 0.001463 kPa
348.41 K	0.001655 kPa
349.41 K	0.001817 kPa
349.87 K	0.001888 kPa
350.86 K	0.002055 kPa
351.82 K	0.002257 kPa
353.27 K	0.002528 kPa
354.29 K	0.002774 kPa
354.73 K	0.002884 kPa
355.73 K	0.003112 kPa
356.67 K	0.003414 kPa
358.13 K	0.003814 kPa
359.16 K	0.004171 kPa
359.59 K	0.004332 kPa
359.63 K	0.004286 kPa
360.59 K	0.004673 kPa
361.55 K	0.005107 kPa
363 K	0.00565 kPa
364.02 K	0.006171 kPa
364.45 K	0.006382 kPa
364.49 K	0.006315 kPa
365.45 K	0.006842 kPa
366.41 K	0.00747 kPa
367.87 K	0.008233 kPa
368.87 K	0.008934 kPa
369.32 K	0.009208 kPa
371.29 K	0.01071 kPa
371.74 K	0.01102 kPa
372.64 K	0.01169 kPa
372.73 K	0.01183 kPa
375.03 K	0.0139 kPa
377.49 K	0.0166 kPa
379.9 K	0.01941 kPa
382.34 K	0.02319 kPa
384.76 K	0.02705 kPa
387.21 K	0.03214 kPa
389.66 K	0.03772 kPa
392.06 K	0.04434 kPa
394.52 K	0.05191 kPa
396.92 K	0.06045 kPa
399.39 K	0.07078 kPa
401.78 K	0.08154 kPa
404.23 K	0.09507 kPa
406.65 K	0.1092 kPa
409.09 K	0.1267 kPa
411.5 K	0.1469 kPa
411.52 K	0.1459 kPa
416.35 K	0.1929 kPa
421.21 K	0.2522 kPa
426.08 K	0.3266 kPa
428.52 K	0.37 kPa
430.94 K	0.4193 kPa

CCCCCCCCCCC(=O)OC [methyl undecanoate]
Settings	vapor or sublimation pressure [kPa]
305.25 K	0.003577
307.81 K	0.004504
310.15 K	0.005571
312.67 K	0.006957
315.06 K	0.008553
317.52 K	0.01055
319.94 K	0.01283
322.42 K	0.01574
324.82 K	0.019
327.29 K	0.02304
329.69 K	0.02778
332.16 K	0.03345
334.54 K	0.03987
337.03 K	0.04783
339.43 K	0.05689
341.91 K	0.06735
